Test results: patent US10189845B2, “4,6-substituted-pyrazolo[1,5-a]pyrazines as janus kinase inhibitors” (ARRAY BIOPHARMA INC., priority 2014, dated 2019)
pIC50: −log10 of the molar value. Structures can show the parent of a compound that is named as a salt. Where two headings read alike, the source gives them in different places.

Tests used:
Format in all cases: biochemical
JAK1 = JAK1 (Homo sapiens (Human), UniProt P23458); assay: JAK1 Inhibition Assay (Example B, Omnia kinase fluorescence peptide substrate assay)
Sequence of JAK1 (P23458 whole entry): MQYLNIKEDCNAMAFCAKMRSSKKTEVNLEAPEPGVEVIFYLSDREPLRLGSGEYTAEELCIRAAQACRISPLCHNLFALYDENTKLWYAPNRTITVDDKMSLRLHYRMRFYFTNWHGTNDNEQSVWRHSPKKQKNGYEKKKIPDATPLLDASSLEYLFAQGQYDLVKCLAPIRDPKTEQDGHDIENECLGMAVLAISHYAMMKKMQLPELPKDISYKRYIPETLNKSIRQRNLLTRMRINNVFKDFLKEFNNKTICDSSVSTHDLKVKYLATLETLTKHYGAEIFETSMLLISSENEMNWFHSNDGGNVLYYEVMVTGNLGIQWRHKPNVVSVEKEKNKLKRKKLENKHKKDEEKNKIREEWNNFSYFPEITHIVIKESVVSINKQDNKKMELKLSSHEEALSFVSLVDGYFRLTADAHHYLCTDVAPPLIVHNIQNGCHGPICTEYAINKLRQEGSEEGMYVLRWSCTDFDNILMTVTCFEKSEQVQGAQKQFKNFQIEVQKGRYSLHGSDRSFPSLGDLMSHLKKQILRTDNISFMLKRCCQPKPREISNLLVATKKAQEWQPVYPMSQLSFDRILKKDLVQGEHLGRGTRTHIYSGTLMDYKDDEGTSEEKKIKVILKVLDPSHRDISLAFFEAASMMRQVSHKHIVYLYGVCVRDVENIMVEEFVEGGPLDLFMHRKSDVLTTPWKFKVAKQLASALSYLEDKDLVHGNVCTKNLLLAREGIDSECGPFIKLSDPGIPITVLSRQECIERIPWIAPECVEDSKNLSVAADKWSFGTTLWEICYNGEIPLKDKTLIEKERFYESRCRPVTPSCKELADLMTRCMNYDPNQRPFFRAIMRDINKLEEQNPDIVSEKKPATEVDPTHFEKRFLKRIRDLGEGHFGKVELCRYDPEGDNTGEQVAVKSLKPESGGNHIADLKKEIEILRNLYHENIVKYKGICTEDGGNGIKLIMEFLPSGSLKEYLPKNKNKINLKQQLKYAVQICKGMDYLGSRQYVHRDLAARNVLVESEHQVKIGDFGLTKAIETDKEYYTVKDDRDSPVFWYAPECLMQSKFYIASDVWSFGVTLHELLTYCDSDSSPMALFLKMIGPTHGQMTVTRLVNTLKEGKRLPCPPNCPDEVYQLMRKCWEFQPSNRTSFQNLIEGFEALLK
How it was run: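 Kinetic fluorescence read (360 nm excitation, 485 nm emission, every 50 s over 45 min) of Omnia Y12 peptide (8 μM) phosphorylation by 12.5 nM human JAK1 at 1 mM ATP. Buffer: HEPES pH 7.4, MgCl2, Triton X-100, DTT; 2% DMSO. IC50 = concentration giving 50 POC on logistic curve.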

JAK3 = JAK3 (Homo sapiens (Human), UniProt P52333); assay: JAK3 Inhibition Assay (Example D, Omnia kinase fluorescence peptide substrate assay)
Sequence of JAK3 (P52333 whole entry): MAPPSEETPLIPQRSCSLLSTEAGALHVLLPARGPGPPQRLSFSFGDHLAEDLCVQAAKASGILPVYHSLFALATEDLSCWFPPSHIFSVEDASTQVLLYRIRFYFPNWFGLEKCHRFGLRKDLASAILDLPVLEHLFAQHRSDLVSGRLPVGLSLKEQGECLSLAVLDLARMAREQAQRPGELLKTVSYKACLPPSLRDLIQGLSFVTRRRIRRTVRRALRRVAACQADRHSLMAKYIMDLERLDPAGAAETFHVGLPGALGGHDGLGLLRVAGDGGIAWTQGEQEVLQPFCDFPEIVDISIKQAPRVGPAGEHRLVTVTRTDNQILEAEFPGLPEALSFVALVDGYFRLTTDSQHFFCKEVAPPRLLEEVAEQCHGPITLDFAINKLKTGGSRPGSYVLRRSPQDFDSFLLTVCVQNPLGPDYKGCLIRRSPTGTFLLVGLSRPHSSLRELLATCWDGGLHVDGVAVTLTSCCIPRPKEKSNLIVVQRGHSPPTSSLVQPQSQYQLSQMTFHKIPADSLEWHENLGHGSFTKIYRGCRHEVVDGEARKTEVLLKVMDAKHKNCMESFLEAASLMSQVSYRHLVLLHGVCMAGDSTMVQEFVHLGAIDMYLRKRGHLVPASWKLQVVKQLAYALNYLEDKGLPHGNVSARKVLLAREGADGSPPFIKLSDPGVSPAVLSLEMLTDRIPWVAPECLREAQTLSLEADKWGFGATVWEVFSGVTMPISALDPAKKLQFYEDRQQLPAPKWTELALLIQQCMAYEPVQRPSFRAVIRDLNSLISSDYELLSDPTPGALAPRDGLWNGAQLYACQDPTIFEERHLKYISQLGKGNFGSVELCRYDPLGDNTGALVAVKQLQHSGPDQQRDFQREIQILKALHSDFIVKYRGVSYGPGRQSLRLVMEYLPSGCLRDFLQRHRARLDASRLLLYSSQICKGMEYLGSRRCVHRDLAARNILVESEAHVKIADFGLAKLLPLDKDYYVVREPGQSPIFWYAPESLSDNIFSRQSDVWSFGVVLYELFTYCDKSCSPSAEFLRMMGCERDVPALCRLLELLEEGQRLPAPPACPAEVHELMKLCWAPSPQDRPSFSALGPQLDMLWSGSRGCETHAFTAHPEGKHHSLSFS
How it was run: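 Omnia Sox-peptide kinetic read (ex 360 nm, em 485 nm, every 50 s over 45 min) tracked phosphorylation of 10 μM Y7 peptide by 2 nM recombinant JAK3 at 1 mM ATP. Buffer: 25 mM HEPES pH 7.4, 10 mM MgCl2, 0.01% Triton X-100, 1 mM DTT, with 2% DMSO final.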

Human Tyk2 kinase domain = Human Tyk2 kinase domain (Homo sapiens (Human), UniProt P29597); assay: Tyk2 Inhibition Assay (Example A, Omnia kinase fluorescence peptide substrate assay); conditions: TYK2 Enzyme IC50 1 mM ATP, averaged IC50 ranges
Sequence of Human Tyk2 kinase domain (P29597 886-1187): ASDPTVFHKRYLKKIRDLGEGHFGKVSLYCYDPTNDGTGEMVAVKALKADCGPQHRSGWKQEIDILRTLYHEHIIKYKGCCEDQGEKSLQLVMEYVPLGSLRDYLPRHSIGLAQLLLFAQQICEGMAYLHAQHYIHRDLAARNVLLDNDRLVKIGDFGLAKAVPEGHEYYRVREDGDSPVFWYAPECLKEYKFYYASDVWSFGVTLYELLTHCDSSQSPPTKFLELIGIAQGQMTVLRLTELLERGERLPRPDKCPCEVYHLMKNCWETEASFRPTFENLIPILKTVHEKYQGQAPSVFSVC
How it was run: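 IC50 values come from a 4-parameter logistic fit of percent-of-control data, with compounds at 2% final DMSO. Reactions held 1 nM His-tag-cleaved Tyk2 (aa 886–1187), 8 μM Omnia Y12 peptide and 1 mM ATP in pH 7.4 HEPES buffer with 10 mM MgCl2, Triton X-100 and DTT. Sox fluorescence (360/485 nm) was monitored kinetically over 45 min.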

JAK2 = JAK2 (Homo sapiens (Human), UniProt O60674); assay: JAK2 Inhibition Assay (Example C, Omnia kinase fluorescence peptide substrate assay); conditions: JAK2 Enzyme IC50 1 mM ATP, averaged IC50 ranges
Sequence of JAK2 (O60674 whole entry): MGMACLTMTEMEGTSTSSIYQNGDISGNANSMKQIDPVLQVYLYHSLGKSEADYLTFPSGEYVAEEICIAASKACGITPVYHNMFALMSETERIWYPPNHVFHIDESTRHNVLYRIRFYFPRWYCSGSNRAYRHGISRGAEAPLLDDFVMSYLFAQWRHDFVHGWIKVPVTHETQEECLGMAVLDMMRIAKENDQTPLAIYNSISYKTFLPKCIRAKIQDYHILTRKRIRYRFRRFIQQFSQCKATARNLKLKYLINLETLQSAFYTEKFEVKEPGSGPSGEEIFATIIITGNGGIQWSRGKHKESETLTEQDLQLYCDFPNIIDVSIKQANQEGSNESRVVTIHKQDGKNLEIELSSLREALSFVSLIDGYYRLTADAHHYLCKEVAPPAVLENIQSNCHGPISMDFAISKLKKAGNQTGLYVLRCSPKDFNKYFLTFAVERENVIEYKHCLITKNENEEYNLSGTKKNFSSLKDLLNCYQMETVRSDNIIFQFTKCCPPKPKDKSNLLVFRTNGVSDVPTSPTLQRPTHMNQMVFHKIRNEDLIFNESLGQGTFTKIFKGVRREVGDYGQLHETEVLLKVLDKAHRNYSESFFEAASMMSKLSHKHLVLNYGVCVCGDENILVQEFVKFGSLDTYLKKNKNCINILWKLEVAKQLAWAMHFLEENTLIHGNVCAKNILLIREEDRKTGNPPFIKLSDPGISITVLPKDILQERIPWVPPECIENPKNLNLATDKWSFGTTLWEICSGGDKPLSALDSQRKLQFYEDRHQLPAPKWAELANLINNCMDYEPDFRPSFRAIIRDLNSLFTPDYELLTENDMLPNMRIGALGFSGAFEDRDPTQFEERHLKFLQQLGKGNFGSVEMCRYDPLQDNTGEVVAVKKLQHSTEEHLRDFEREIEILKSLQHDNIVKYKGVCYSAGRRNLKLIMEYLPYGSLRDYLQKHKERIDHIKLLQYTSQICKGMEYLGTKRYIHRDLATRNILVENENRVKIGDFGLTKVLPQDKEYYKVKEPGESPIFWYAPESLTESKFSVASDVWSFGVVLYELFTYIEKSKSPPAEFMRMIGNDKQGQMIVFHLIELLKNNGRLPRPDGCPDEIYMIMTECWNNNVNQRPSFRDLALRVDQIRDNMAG
How it was run: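 Kinetic fluorescence read of Omnia Y7 peptide (10 μM) phosphorylation, ex 360/em 485 nm every 50 s over 45 min, by 4 nM JAK2 at 1 mM ATP. Buffer 25 mM HEPES pH 7.4, 10 mM MgCl2, 0.01% Triton X-100, 1 mM DTT; final DMSO 2%. Percent-of-control values fitted by 4-parameter logistic for IC50.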

[1] = JAK1 Enzyme IC50 1 mM ATP, 1 mM ATP, averaged IC50 ranges

| pIC50 (JAK1; [1]) | pIC50 (JAK3) | pIC50 (Human Tyk2 kinase domain) | pIC50 (JAK2) | pIC50 (JAK1) | Structure (SMILES) |
| --- | --- | --- | --- | --- | --- |
| 7.00 to 8.00 | 5.00 to 6.00 | 7.00 to 8.00 | 7.00 to 8.00 | – | CCC(CC)n1cc(-c2nc(-c3cnn(C[C@H](C)CO)c3)cn3nccc23)cn1 [Example 15, (S)-2-methyl-3-(4-(4-(1-(pentan-3-yl)-1H-pyrazol-4-yl)pyrazolo[1,5-a]pyrazin-6-yl)-1H-pyrazol-1-yl)propan-1-ol] |
| – | 5.00 to 6.00 | 6.00 to 7.00 | 6.00 to 7.00 | 5.00 to 6.00 | CCC(CC)n1cc(-c2nc(-c3cnn([C@H]4C[C@H](C(=O)N(C)C)C4)c3)cn3nccc23)cn1 [Example 169, (1r,3r)-N,N-dimethyl-3-(4-(4-(1-(pentan-3-yl)-1H-pyrazol-4-yl)pyrazolo[1,5-a]pyrazin-6-yl)-1H-pyrazol-1-yl)cyclobutanecarboxamide] |
| – | 5.00 to 6.00 | 7.00 to 8.00 | 7.00 to 8.00 | 5.00 to 6.00 | CCC(CC)n1cc(-c2nc(-c3cnn(C[C@H](CN)OC)c3)cn3nccc23)cn1 (single isomer, unassigned) [Example 149] |
| 5.00 to 6.00 | 5.00 to 6.00 | 5.00 to 6.00 | 6.00 to 7.00 | – | CC1(C)CCC[C@H]1n1cc(-c2nc(-c3cnn(C[C@@H](O)CO)c3)cn3nccc23)cn1 (single isomer, unassigned) [Example 96] |
| – | 5.00 to 6.00 | 7.00 to 8.00 | 7.00 to 8.00 | 5.00 to 6.00 | CCC(CC)n1cc(-c2nc(-c3cnn(CCN4CCNCC4=O)c3)cn3nccc23)cn1 [Example 147, 1-(2-(4-(4-(1-(pentan-3-yl)-1H-pyrazol-4-yl)pyrazolo[1,5-a]pyrazin-6-yl)-1H-pyrazol-1-yl)ethyl)piperazin-2-one] |
| – | 5.00 to 6.00 | 6.00 to 7.00 | 6.00 to 7.00 | 5.00 to 6.00 | Cn1cc(-c2cn3nccc3c(-c3cnn(C4CCCC4O)c3)n2)cn1 (stereo not shown) [Example 53, 2-(4-(6-(1-methyl-1H-pyrazol-4-yl)pyrazolo[1,5-a]pyrazin-4-yl)-1H-pyrazol-1-yl)cyclopentanol] |
| – | 5.00 to 6.00 | 7.00 to 8.00 | 7.00 to 8.00 | 6.00 to 7.00 | CCC(CC)n1cc(-c2nc(-c3cnn(C[C@@H](O)COC)c3)cn3nccc23)cn1 [Example 107, (R)-1-methoxy-3-(4-(4-(1-(pentan-3-yl)-1H-pyrazol-4-yl)pyrazolo[1,5-a]pyrazin-6-yl)-1H-pyrazol-1-yl)propan-2-ol] |
| – | 5.00 to 6.00 | 7.00 to 8.00 | 7.00 to 8.00 | 6.00 to 7.00 | CCC(CC)n1cc(-c2nc(-c3cnn(C4CCN(C(=O)N(C)C)CC4)c3)cn3nccc23)cn1 [Example 35, N,N-dimethyl-4-(4-(4-(1-(pentan-3-yl)-1H-pyrazol-4-yl)pyrazolo[1,5-a]pyrazin-6-yl)-1H-pyrazol-1-yl)piperidine-1-carboxamide] |
| 5.00 to 6.00 | 5.00 to 6.00 | 6.00 to 7.00 | 6.00 to 7.00 | – | CC[C@@H](n1cc(-c2nc(-c3cnn(C[C@@H](O)CO)c3)cn3nccc23)cn1)C(C)(F)F (single isomer, unassigned) [Example 199] |
| 5.00 to 6.00 | 5.00 to 6.00 | 7.00 to 8.00 | 7.00 to 8.00 | – | CCC(CC)n1cc(-c2nc(-c3cnn(CC4(O)CCOCC4)c3)cn3nccc23)cn1 [Example 116, 4-((4-(4-(1-(pentan-3-yl)-1H-pyrazol-4-yl)pyrazolo[1,5-a]pyrazin-6-yl)-1H-pyrazol-1-yl)methyl)tetrahydro-2H-pyran-4-ol] |
| – | 5.00 to 6.00 | 6.00 to 7.00 | 7.00 to 8.00 | 5.00 to 6.00 | CCC(CC)n1cc(-c2nc(-c3cnn(CCN[C@@H]4CCN(C)C4=O)c3)cn3nccc23)cn1 [Example 143, (R)-1-methyl-3-((2-(4-(4-(1-(pentan-3-yl)-1H-pyrazol-4-yl)pyrazolo[1,5-a]pyrazin-6-yl)-1H-pyrazol-1-yl)ethyl)amino)pyrrolidin-2-one] |
| 6.00 to 7.00 | 5.00 to 6.00 | 7.00 to 8.00 | 7.00 to 8.00 | – | CCC(CC)n1cc(-c2nc(-c3cnn([C@@H]4CCC[C@H]4O)c3)cn3nccc23)cn1 (single isomer, unassigned) [Example 153] |
| – | 5.00 to 6.00 | 7.00 to 8.00 | 6.00 to 7.00 | 5.00 to 6.00 | CCC(CC)n1cc(-c2nc(-c3cnn(CC(O)C(C)C)c3)cn3nccc23)cn1 (stereo not shown) [Example 113, 3-methyl-1-(4-(4-(1-(pentan-3-yl)-1H-pyrazol-4-yl)pyrazolo[1,5-a]pyrazin-6-yl)-1H-pyrazol-1-yl)butan-2-ol] |
| – | 5.00 to 6.00 | 6.00 to 7.00 | 6.00 to 7.00 | 5.00 to 6.00 | CC(C)n1cc(-c2nc(-c3cnn(C4CCNCC4)c3)cn3nccc23)cn1 [Example 26, 4-(1-isopropyl-1H-pyrazol-4-yl)-6-(1-(piperidin-4-yl)-1H-pyrazol-4-yl)pyrazolo[1,5 a]pyrazine] |
| – | 5.00 to 6.00 | 7.00 to 8.00 | 7.00 to 8.00 | 5.00 to 6.00 | CCC(CC)n1cc(-c2nc(-c3cnn(CCN4CCCC4)c3)cn3nccc23)cn1 [Example 135, 4-(1-(pentan-3-yl)-1H-pyrazol-4-yl)-6-(1-(2-(pyrrolidin-1-yl)ethyl)-1H-pyrazol-4-yl)pyrazolo[1,5-a]pyrazine] |
| 6.00 to 7.00 | 5.00 to 6.00 | 7.00 to 8.00 | 7.00 to 8.00 | – | CCC(CC)n1cc(-c2nc(-c3cnn(CC(O)CO)c3)cn3nccc23)cn1 (stereo not shown) [Example 58, 3-(4-(4-(1-(pentan-3-yl)-1H-pyrazol-4-yl)pyrazolo[1,5-a]pyrazin-6-yl)-1H-pyrazol-1-yl)propane-1,2-diol] |
| – | 5.00 to 6.00 | 7.00 to 8.00 | 7.00 to 8.00 | 6.00 to 7.00 | CC1CCCCCC1n1cc(-c2nc(-c3cnn(C)c3)cn3nccc23)cn1 (stereo not shown) [Example 52, 6-(1-methyl-1H-pyrazol-4-yl)-4-(1-(2-methylcycloheptyl)-1H-pyrazol-4-yl)pyrazolo[1,5-a]pyrazine] |
| – | 5.00 to 6.00 | 7.00 to 8.00 | 7.00 to 8.00 | 6.00 to 7.00 | CCC(CC)n1cc(-c2nc(-c3cnn(C4CN(C(=O)CNC)C4)c3)cn3nccc23)cn1 [Example 187, 2-(methylamino)-1-(3-(4-(4-(1-(pentan-3-yl)-1H-pyrazol-4-yl)pyrazolo[1,5-a]pyrazin-6-yl)-1H-pyrazol-1-yl)azetidin-1-yl)ethanone bis(2,2,2-trifluoroacetate)] |
| – | 5.00 to 6.00 | 6.00 to 7.00 | 7.00 to 8.00 | 5.00 to 6.00 | CCC(CC)n1cc(-c2nc(-c3cnn(C4CN(C(=O)[C@@H](C)O)C4)c3)cn3nccc23)cn1 [Example 175, (R)-2-hydroxy-1-(3-(4-(4-(1-(pentan-3-yl)-1H-pyrazol-4-yl)pyrazolo[1,5-a]pyrazin-6-yl)-1H-pyrazol-1-yl)azetidin-1-yl)propan-1-one] |
| – | 5.00 to 6.00 | 6.00 to 7.00 | 6.00 to 7.00 | 5.00 to 6.00 | Cn1cc(-c2cn3nccc3c(-c3cnn(C4CCCCCC4)c3)n2)cn1 [Example 2, 4-(1-cycloheptyl-1H-pyrazol-4-yl)-6-(1-methyl-1H-pyrazol-4-yl)pyrazolo[1,5-a]pyrazine] |
| – | 5.00 to 6.00 | 7.00 to 8.00 | 7.00 to 8.00 | 6.00 to 7.00 | CCC(CC)n1cc(-c2nc(-c3cnn(CC4CCOCC4)c3)cn3nccc23)cn1 [Example 4, 4-(1-(pentan-3-yl)-1H-pyrazol-4-yl)-6-(1-((tetrahydro-2H-pyran-4-yl)methyl)-1H-pyrazol-4-yl)pyrazolo[1,5-a]pyrazine] |
| – | 5.00 to 6.00 | 7.00 to 8.00 | 7.00 to 8.00 | 5.00 to 6.00 | C[C@@H]1CCCC[C@H]1n1cc(-c2nc(-c3cnn(C(CO)CO)c3)cn3nccc23)cn1 (single isomer, unassigned) [Example 150] |
| – | 5.00 to 6.00 | 7.00 to 8.00 | 7.00 to 8.00 | 5.00 to 6.00 | CCC(CC)n1cc(-c2nc(-c3cnn(CCN[C@H]4CCN(C)C4=O)c3)cn3nccc23)cn1 [Example 142, (S)-1-methyl-3-((2-(4-(4-(1-(pentan-3-yl)-1H-pyrazol-4-yl)pyrazolo[1,5-a]pyrazin-6-yl)-1H-pyrazol-1-yl)ethyl)amino)pyrrolidin-2-one] |
| – | 5.00 to 6.00 | 7.00 to 8.00 | 7.00 to 8.00 | 6.00 to 7.00 | CCC(CC)n1cc(-c2nc(-c3cnn([C@@H](C)[C@H](O)CO)c3)cn3nccc23)cn1 [Example 89, (2S,3S)-3-(4-(4-(1-(pentan-3-yl)-1H-pyrazol-4-yl)pyrazolo[1,5-a]pyrazin-6-yl)-1H-pyrazol-1-yl)butane-1,2-diol] |

| Structure (SMILES) | pIC50 (JAK1; [1]) | pIC50 (JAK3) | pIC50 (Human Tyk2 kinase domain) | pIC50 (JAK2) | pIC50 (JAK1) |
| --- | --- | --- | --- | --- | --- |
| CC[C@H](C)n1cc(-c2nc(-c3cnn(C[C@H](O)CO)c3)cn3nccc23)cn1 [Example 70, (S)-3-(4-(4-(1-((S)-sec-butyl)-1H-pyrazol-4-yl)pyrazolo[1,5-a]pyrazin-6-yl)-1H-pyrazol-1-yl)propane-1,2-diol hydrochloride] | – | 5.00 to 6.00 | 7.00 to 8.00 | 7.00 to 8.00 | 6.00 to 7.00 |
